Assay results taken from patent publication US20250367170A1, “TOPICAL ANGIOTENSIN II RECEPTOR BLOCKERS (ARBS) FOR TREATING EYE CONDITIONS” (The Cleveland Clinic Foundation, priority 2022, published 2025).

Key:
[1] = test system: collagen type IV; assay: IHC collagen type IV intensity in posterior stroma (ImageJ) after Descemetorhexis; assay type: in vivo, New Zealand White rabbits; conditions: one month
Description: (§1) Duplex immunohistochemistry (IHC) was performed after masking of slides by a researcher not involved in the analysis using previously described methods (de Oliveira et al., 2021) using primary antibodies (Table 2) confirmed by western blotting and IHC to recognize rabbit antigens or isotypic control antibodies (ThermoFisher Scientific, Waltham, MA), and secondary fluorescent tagged antibodies (Table 3).
The AB769 (Millipore, Temecula CA) collagen type IV antibody used in this study was generated against purified human and bovine collagen type IV, affinity purified with human and bovine collagen type IV crosslinked to agarose and cross-absorbed by the manufacturer with human and bovine collagens type I, II, III, V and VI to eliminate cross-reactivity. This antibody was shown previously to bind rabbit collagen IV in IHC (Sampaio et al., in press). […]
Collagen type IV intensity in immunohistochemistry images was quantitated in 0.75 W×0.5H rectangles of posterior stroma tangent to the posterior corneal surface using ImageJ on 7.62 cm wide×5.69 cm height and 300 DPI images generated using standardized microscopic illumination settings applied to all sections. The quantitation rectangles were positioned such that the posterior side of the rectangle was tangent to the posterior corneal surface just anterior to Descemet's membrane, if one was present, in the analysed specimens. […]

[2] = test system: TGF beta-1; assay: IHC TGF beta-1 in posterior stroma after Descemetorhexis; assay type: in vivo, New Zealand White rabbits; conditions: topical and/or oral losartan
Description: as §1
The AB769 (Millipore, Temecula CA) collagen type IV antibody used in this study was generated against purified human and bovine collagen type IV, affinity purified with human and bovine collagen type IV crosslinked to agarose and cross-absorbed by the manufacturer with human and bovine collagens type I, II, III, V and VI to eliminate cross-reactivity. This antibody was shown previously to bind rabbit collagen IV in IHC (Sampaio et al., in press). The keratocan antibody was raised against peptide H2N-[…]-OH (SEQ ID NO:1).

[3] = test system: rabbit corneas after 1N NaOH alkali burn injury; assay: Slit lamp stromal opacity area and intensity (ImageJ) one month after alkali burn; assay type: in vivo, New Zealand White rabbits; conditions: topical 0.2 mg/ml losartan and/or 1% prednisolone acetate six times per day
Description: All animal treatments and care were approved by the Institutional Animal Care and Use Committee (IACUC) at the Cleveland Clinic Foundation (Cleveland, OH, USA) and the Animal Care and Use Review Office of the Department of the Army (Fort Detrick, MD). All rabbits were treated in accordance with the tenets of the ARVO Statement for the Use of Animals in Ophthalmic and Vision Research. Sixteen 10- to 15-week-old female New Zealand White rabbits weighing 2.5 to 3.0 kg each were included in this example.
(§2) Alkali injuries were produced in one eye of rabbits with previously published methods^10 using 1N sodium hydroxide (Sigma, St. Louis, MO) in balanced salt solution (BSS, 0.64% sodium chloride, 0.075% potassium chloride, 0.048% calcium chloride dihydrate, 0.03% magnesium chloride hexahydrate, 0.39% sodium acetate trihydrate, 0.17% sodium citrate dihydrate, pH 7.5, Alcon, Ft. Worth, TX) and a 5 mm diameter circular Whatman No. 1 filter paper (Cat #1001-6508, Fisher Scientific) wetted with 100 μl of 1N NaOH solution. Following the alkali burn injury, the cornea was irrigated profusely with BSS. Each injured cornea also received one drop of ciprofloxacin (Alcon, Ft. Worth, TX, USA) ten minutes after surgery and four times a day for one week and at least 15 minutes apart from the study medications.
(§3) Worth TX), at least 5 minutes apart, or 4) 50 μl of BSS.
At one month after sodium hydroxide exposure and treatments, with the rabbits under ketamine-xylazine general anesthesia, the eyes were dilated with two drops of 1% tropicamide (Akom Co., Lake Forest, IL) for thirty minutes. The study eye in each rabbit had slit lamp photographs with standardized illumination level and angle of illumination at 20× magnification with a Topcon (Oakland, NJ, USA) SL-D7 slit lamp photography system. For each study eye, the total area of opacity was determined by outlining the opacity with the freehand selection tool using ImageJ 1.53a analysis software calibrated to mm^2. The “raw internal density” in pixels for the opacified area in each cornea was also determined using ImageJ.

[4] = test system: central corneal neovascularization (CNV); assay: Corneal angiography for central corneal neovascularization after alkali burn; assay type: in vivo, New Zealand White rabbits; conditions: topical six times per day, one month, all four vehicle corneas positive
Description: as §2, §3
All corneas had fluorescent angiography at the peak of dye passage in the cornea immediately after injection of 1.5 ml of 10% sodium fluorescein (McKesson, Irvine, TX) in the central ear vein with the slit lamp system and digital camera system using a “barrier filter” that only transmitted 520-530 nm, the peak of fluorescein emission, with broad illumination of the cornea, as previously described.^11

[5] = test system: collagen type IV; assay: IHC collagen type IV intensity in anterior and posterior stroma after alkali burn; assay type: in vivo, New Zealand White rabbits; conditions: one month
Description: Multiplex immunohistochemistry (IHC) was performed using previously described methods^8 and primary antibodies (Table 7) confirmed by western blotting and IHC to recognize rabbit antigens or isotypic control antibodies (Thermo Fisher Scientific, Waltham, MA), and secondary fluorescent tagged antibodies (Table 7). The collagen type IV antibody (Cat. #AB769, Millipore, Temecula CA) was raised against purified human and bovine collagen type IV that had been affinity purified with human and bovine collagen type IV crosslinked to agarose and cross-absorbed by the manufacturer with human and bovine collagens type I, II, III, V and VI to eliminate cross-reactivity. This collagen type IV antibody was shown previously to bind rabbit collagen IV in IHC,^8,9 and recognizes the alpha-1/alpha-2 chains but not the alpha-3 to alpha-6 chains. The keratocan antibody is raised against peptide […]-OH (SEQ ID NO:1). This marker was used to identify keratocytes in situ. […] All corneas in each group had IHC for collagen type IV. Images from each cornea were converted to uniform 300 DPI, 875×568 pixel, files. […] The staining intensity within each box was determined with the analyze histogram function and the mean of three boxes was the intensity value in the anterior or posterior stroma for that cornea.

[6] = test system: collagen type IV; assay: IHC stromal collagen type IV pixels (ImageJ) one month after -9D PRK; assay type: in vivo, New Zealand white rabbits
Description: Rabbits were euthanized while under ketamine-xylazine general anesthesia with 100 mg/kg Beuthanasia (Shering-Plough, Kenilworth, NJ, USA) by intravenous injection followed by bilateral pneumothorax. The corneo-scleral rims were removed with sharp Westcott scissors (Fairfield, CT, USA) and 0.12 forceps (Storz, St Louis, MO, USA). The corneo-scleral rim was then centered in a 24-mm×24-mm×5-mm mold (Fisher Scientific, Pittsburgh, PA, USA) that was filled with optimal cutting temperature (OCT) compound (Sakura Finetek, Torrance, CA, USA) and quick frozen on dry ice. Blocks were stored at −80° C. until sectioning. Blocks were bisected at the center of the cornea and 10-pm-thick transverse sections were cut from the central cornea with a cryostat (HM 505M; Micron 5 GmbH, Walldorf, Germany). Three sections from each cornea were placed on each 25-mm×75-mm×1-mm Superfrost Plus microscope slide (Fisher Scientific). Slides with sections were maintained at −20° C. prior to immunohistochemistry (IHC).
All images were converted to 300 DPI 900 pixel width×672 pixel height images with Photoshop 22.1.1 (Adobe, San Jose, CA). The mean pixels of stromal α-SMA or stromal collagen type IV were determined in a 900-pixel wide×235-pixel high rectangle (for either α-SMA or collagen type IV quantitation) with ImageJ in three sections for each cornea using the image panels showing only the color of interest. […]

SMILES: CCCCc1nc(Cl)c(CO)n1Cc1ccc(-c2ccccc2-c2nn[nH]n2)cc1 [losartan]
- posterior stromal collagen type IV production vs topical and oral vehicle ([1]; topical and oral losartan): significantly decreased
- posterior stromal collagen type IV production vs topical and oral vehicle ([1]; topical losartan): significantly decreased
- levels of TGF beta-1 in the posterior stroma or at the posterior stromal surface vs vehicle [2]: No effect
- total corneal opacity area measured with ImageJ, vs BSS vehicle [3]: decreased
- total opacity in pixels in the opacified area of cornea, vs vehicle BSS group [3]: significantly lower
- corneas (of four) that developed central corneal neovascularization [4]: two
- COL IV staining intensity in the posterior stroma vs vehicle [5]: significantly different
- mean intensity units of collagen type IV in the anterior stroma vs vehicle [5]: significantly decreased
- collagen type IV detected in the underlying anterior stroma (IHC) compared with vehicle [6]: far smaller amounts
